Molecular target: T1, human PTH1 receptor (Homo sapiens, UniProt Q03431)
T1 sequence (Q03431 27-593): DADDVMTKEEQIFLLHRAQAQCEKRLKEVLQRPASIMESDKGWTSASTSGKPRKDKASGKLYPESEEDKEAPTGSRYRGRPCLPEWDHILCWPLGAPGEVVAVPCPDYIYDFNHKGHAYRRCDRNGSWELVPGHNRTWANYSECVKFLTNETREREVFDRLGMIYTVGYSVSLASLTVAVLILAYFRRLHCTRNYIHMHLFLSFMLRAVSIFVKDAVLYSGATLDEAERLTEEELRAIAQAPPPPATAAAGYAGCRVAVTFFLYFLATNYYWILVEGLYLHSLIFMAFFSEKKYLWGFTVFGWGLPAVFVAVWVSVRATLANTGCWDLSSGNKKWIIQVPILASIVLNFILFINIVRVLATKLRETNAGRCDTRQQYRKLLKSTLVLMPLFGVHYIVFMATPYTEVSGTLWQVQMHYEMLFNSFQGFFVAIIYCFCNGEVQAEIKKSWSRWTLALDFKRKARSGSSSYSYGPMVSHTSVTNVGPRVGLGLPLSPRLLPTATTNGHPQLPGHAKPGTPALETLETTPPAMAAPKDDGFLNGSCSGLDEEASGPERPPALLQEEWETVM
Test: In vitro cAMP signal activity in HKRK-B7 cells (LLC-PK1 cells overexpressing the human PTH1 receptor)
Assay type: cell-based
Conditions: HKRK-B7 cells; compound at 1×10^−3 M; cAMP produced as percentage of that produced by hPTH(1-34) at 100 nM

SMILES | cAMP production activity (%)
Cc1cc(C(=O)N2CCC(O)(CF)CC2)cc(C)c1/C=C/S(=O)(=O)N1CCC2(CC1)N=C(c1ccc(OCC(F)(F)F)c(F)c1)NC2=O [Compound 1260, 8-{(E)-2-[4-(4-fluoromethyl-4-hydroxy-piperidine-1-carbonyl)-2,6-dimethyl-phenyl]-ethenesulfonyl}-2-[3-fluoro-4-(2,2,2-trifluoro-ethoxy)-phenyl]-1,3,8-triaza-spiro[4.5]dec-1-en-4-one] | 81%
[2H]C([2H])([2H])C([2H])([2H])C([2H])([2H])C([2H])([2H])Oc1ccc(C2=NC3(CCN(S(=O)(=O)/C=C/c4c(C)cc(C(=O)N5CCC(O)(CF)CC5)cc4C)CC3)C(=O)N2)cc1C(F)(F)F [Compound 1261, 2-(4-[1,1,2,2,3,3,4,4,4-^2H9]butoxy-3-trifluoromethyl-phenyl)-8-{(E)-2-[4-(4-fluoromethyl-4-hydroxy-piperidine-1-carbonyl)-2,6-dimethyl-phenyl]-ethenesulfonyl}-1,3,8-triaza-spiro[4.5]dec-1-en-4-one] | 99%
[2H]C([2H])([2H])C([2H])(Oc1ccc(C2=NC3(CCN(S(=O)(=O)/C=C/c4c(C)cc(C(=O)N5CCC(O)(CF)CC5)cc4C)CC3)C(=O)N2)cc1C(F)(F)F)C([2H])([2H])[2H] [Compound 1262, 8-{(E)-2-[4-(4-fluoromethyl-4-hydroxy-piperidine-1-carbonyl)-2,6-dimethyl-phenyl]-ethenesulfonyl}-2-(4-[1,2,2,2,2,2,2-^2H7]isopropoxy-3-trifluoromethyl-phenyl)-1,3,8-triaza-spiro[4.5]dec-1-en-4-one] | 90%
Cc1cc(C(=O)N2CCC(O)(CF)CC2)cc(C)c1/C=C/S(=O)(=O)N1CCC2(CC1)N=C(c1ccc(F)c(OCCCC(F)(F)C(F)(F)F)c1)NC2=O [Compound 1263, 8-{(E)-2-[4-(4-fluoromethyl-4-hydroxy-piperidine-1-carbonyl)-2,6-dimethyl-phenyl]-ethenesulfonyl}-2-[4-fluoro-3-(4,4,5,5,5-pentafluoro-pentyloxy)-phenyl]-1,3,8-triaza-spiro[4.5]dec-1-en-4-one] | 73%
Cc1cc(C(=O)N2CCC(O)(CF)CC2)cc(C)c1/C=C/S(=O)(=O)N1CCC2(CC1)N=C(c1ccc(F)c(OCCCF)c1)NC2=O [Compound 1264, 2-[4-fluoro-3-(3-fluoro-propoxy)-phenyl]-8-{(E)-2-[4-(4-fluoromethyl-4-hydroxy-piperidine-1-carbonyl)-2,6-dimethyl-phenyl]-ethenesulfonyl}-1,3,8-triaza-spiro[4.5]dec-1-en-4-one] | 77%
Cc1cc(C(=O)N2CCC(O)(CF)CC2)cc(C)c1/C=C/S(=O)(=O)N1CCC2(CC1)N=C(c1ccc(OC(F)(F)F)c(OCCCC(F)(F)F)c1)NC2=O [Compound 1273, 8-{(E)-2-[4-(4-fluoromethyl-4-hydroxy-piperidine-1-carbonyl)-2,6-dimethyl-phenyl]-ethenesulfonyl}-2-[3-(4,4,4-trifluoro-butoxy)-4-trifluoromethoxy-phenyl]-1,3,8-triaza-spiro[4.5]dec-1-en-4-one] | 81%

Other lines, results leading:

cAMP production activity (%) | SMILES
89% | Cc1cc(C(=O)N2CCC(O)(CF)CC2)cc(C)c1/C=C/S(=O)(=O)N1CCC2(CC1)N=C(c1ccc(OC(C)(C)C(F)(F)F)c(C(F)(F)F)c1)NC2=O [Compound 1265, 8-{(E)-2-[4-(4-fluoromethyl-4-hydroxy-piperidine-1-carbonyl)-2,6-dimethyl-phenyl]-ethenesulfonyl}-2-[4-(2,2,2-trifluoro-1,1-dimethyl-ethoxy)-3-trifluoromethyl-phenyl]-1,3,8-triaza-spiro[4.5]dec-1-en-4-one]
96% | Cc1cc(C(=O)N2CCC(O)(CF)CC2)cc(C)c1/C=C/S(=O)(=O)N1CCC2(CC1)N=C(c1ccc(C(F)(F)F)c(OC(C)(C)C(F)(F)F)c1)NC2=O [Compound 1266, 8-{(E)-2-[4-(4-fluoromethyl-4-hydroxy-piperidine-1-carbonyl)-2,6-dimethyl-phenyl]-ethenesulfonyl}-2-[3-(2,2,2-trifluoro-1,1-dimethyl-ethoxy)-4-trifluoromethyl-phenyl]-1,3,8-triaza-spiro[4.5]dec-1-en-4-one]
74% | Cc1cc(C(=O)N2CCC(O)(CF)CC2)cc(C)c1/C=C/S(=O)(=O)N1CCC2(CC1)N=C(c1cccc(C(C)(F)F)c1)NC2=O [Compound 1267, 2-[3-(1,1-difluoro-ethyl)-phenyl]-8-{(E)-2-[4-(4-fluoromethyl-4-hydroxy-piperidine-1-carbonyl)-2,6-dimethyl-phenyl]-ethenesulfonyl}-1,3,8-triaza-spiro[4.5]dec-1-en-4-one]
33% | Cc1cc(C(=O)N2CCC(O)(CF)CC2)cc(C)c1/C=C/S(=O)(=O)N1CCC2(CC1)N=C(c1ccc3cc[nH]c3c1)NC2=O [Compound 1268, 8-{(E)-2-[4-(4-fluoromethyl-4-hydroxy-piperidine-1-carbonyl)-2,6-dimethyl-phenyl]-ethenesulfonyl}-2-(1H-indol-6-yl)-1,3,8-triaza-spiro[4.5]dec-1-en-4-one]
92% | Cc1cc(C(=O)N2CCC(O)(CF)CC2)cc(C)c1/C=C/S(=O)(=O)N1CCC2(CC1)N=C(c1ccc(OC(F)(F)F)cc1)NC2=O [Compound 1269, 8-{(E)-2-[4-(4-fluoromethyl-4-hydroxy-piperidine-1-carbonyl)-2,6-dimethyl-phenyl]-ethenesulfonyl}-2-(4-trifluoromethoxy-phenyl)-1,3,8-triaza-spiro[4.5]dec-1-en-4-one]
61% | Cc1cc(C(=O)N2CCC(O)(CF)CC2)cc(C)c1/C=C/S(=O)(=O)N1CCC2(CC1)N=C(c1ccc(Cl)c(OCC(F)(F)C(F)(F)F)c1)NC2=O [Compound 1270, 2-[4-chloro-3-(2,2,3,3,3-pentafluoro-propoxy)-phenyl]-8-{(E)-2-[4-(4-fluoromethyl-4-hydroxy-piperidine-1-carbonyl)-2,6-dimethyl-phenyl]-ethenesulfonyl}-1,3,8-triaza-spiro[4.5]dec-1-en-4-one]
92% | Cc1cc(C(=O)N2CCC(O)(CF)CC2)cc(C)c1/C=C/S(=O)(=O)N1CCC2(CC1)N=C(c1ccc(Cl)c(OC(C)(C)C(F)(F)F)c1)NC2=O [Compound 1271, 2-[4-chloro-3-(2,2,2-trifluoro-1,1-dimethyl-ethoxy)-phenyl]-8-{(E)-2-[4-(4-fluoromethyl-4-hydroxy-piperidine-1-carbonyl)-2,6-dimethyl-phenyl]-ethenesulfonyl}-1,3,8-triaza-spiro[4.5]dec-1-en-4-one]
71% | [2H]C([2H])([2H])C([2H])([2H])Oc1cc(C2=NC3(CCN(S(=O)(=O)/C=C/c4c(C)cc(C(=O)N5CCC(O)(CF)CC5)cc4C)CC3)C(=O)N2)ccc1F [Compound 1272, 2-(3-[1,1,2,2,2-^2H5]ethoxy-4-fluoro-phenyl)-8-{(E)-2-[4-(4-fluoromethyl-4-hydroxy-piperidine-1-carbonyl)-2,6-dimethyl-phenyl]-ethenesulfonyl}-1,3,8-triaza-spiro[4.5]dec-1-en-4-one]
